The values that follow are results of earlier work, collected in US8491930B2, “Pharmaceutical formulation containing ibuprofen and codeine” (Farmasierra Manufacturing, S.L., priority 2008, dated 2013).

Take `COc1ccc2c3c1OC1C(O)C=C[C@H]4[C@@H](C2)N(C)CC[C@]314` (stereo partly shown) [Codeine phosphate, 7,8-didehydro-4,5-epoxy-3-methoxy-17-methyl-morphinan-6-ol]: the Solubility in water entry is “soluble in water”.
